In article PMC3118801, “Tyrosine Kinase Syk Non-Enzymatic Inhibitors and Potential Anti-Allergic Drug-Like Compounds Discovered by Virtual and In Vitro Screening” (PLoS ONE, 2011):
≈ marks a conversion by molar mass, not a printed value. Read-outs that look alike come from different tables or passages of the source.

Assays:
[1] = biological target: T1, Syk (GST:Syk 6-242 fusion protein) (Homo sapiens, UniProt P43405); experiment: ELISA-based Antibody Displacement Assay (binding of scFv G4G11 to Syk); conditions: 10 µM small molecule, 100 nM G4G11
T1 construct: Recombinant GST:Syk 6-242 fusion protein [34] was immobilized on an ELISA plate; made in house
Experimental: To determine the ability of the compounds to affect the binding of scFv G4G11 to Syk in vitro, we tested them individually in an ELISA-based Antibody Displacement Assay (see Materials and Methods). For this purpose, all 1000 compounds were reconstituted in DMSO, and they were tested at a final concentration of 10 µM in PBS. Compound C-13 was reconstituted in DMF and was used in parallel as a control. The capacity of each compound to inhibit the binding of G4G11 to Syk was evaluated in comparison to the binding of G4G11 to Syk in PBS (final concentration of 100 nM) containing the appropriate concentrations of DMSO or DMF.
Recombinant GST:Syk 6-242 fusion protein [34] was immobilized on an ELISA plate at final concentration of 10 µg ml^−1. For the screening assay, small molecules diluted in PBS at final concentration of 10 µM were added to the wells for one hour at RT, before adding myc-tagged scFv G4G11 at final concentration of 100 nM for one additional hour. The binding of G4G11 to Syk was evaluated by adding HRP-conjugated mAb 9E10 which detects the amino acid sequence EQKLISEEDLN of human c-myc protein located at the C-terminal end of the scFv.

RBL-2H3 mast cells [2] = experiment: FcεRI-induced β-hexosaminidase release (mast cell degranulation); assay type: cell-based, rat
Experimental: The 85 compounds were then tested in a cellular functional assay in order to evaluate their ability to inhibit the liberation of allergic mediators from mast cells. The test is based on the measure of the liberation by exocytosis of the enzyme β-hexosaminidase following the stimulation of the FcεRI, the high affinity receptor for IgE at the surface of mast cells. To this aim, RBL-2H3 mast cells were incubated with each compound for one hour at a final concentration of 20 µM, and β-hexosaminidase release following FcεRI stimulation was measured.
The mouse IgE anti-DNP monoclonal antibody 2682-I was used as hybridoma culture supernatants which contained 1 µg ml^−1 IgE. RBL-2H3 rat basophilic leukaemia cells (ATCC) were maintained as monolayer cultures in RPMI 1640 medium supplemented with 10% fetal bovine serum (Gibco). Measurements of β-hexosaminidase release in RBL-2H3 cells were performed as described, except that after 12–16 h incubation with anti-DNP IgE (0.5 µg ml^−1), cells were incubated for 90 min at 37°C in RPMI medium supplemented with the indicated concentrations of small molecules or DMSO (0.25%). Cells were challenged for 45 min with DNP-BSA (50 ng ml^−1).

RBL-2H3 mast cells [3] = experiment: Ionomycin-induced degranulation as control of the degranulation machinery (toxic effects); assay type: cell-based, rat; conditions: ionomycin treatment, concentrations up to 10 µM
Experimental: To address the possible toxic effects of these compounds on degranulation, we performed a dose-dependent experiment in which FcεRI-dependent degranulation of mast cells was performed in parallel with ionomycin-induced degranulation as a control of the degranulation machinery. […] The ADMET profile of our 10 bioactive compounds was analyzed further. […] In addition, the solubility was measured experimentally and the Lipinski “rule of five” descriptors were computed to probe further the molecules from cluster 2 (Table 1).
Figure 5 Compounds 7501888 and 7722851 impair FcεRI-induced mast cell degranulation. β-hexosaminidase release from mast cells was evaluated in comparison to ionomycin-induced degranulation as a control of the machinery.

[4] = Solubility measurement in PBS by HPLC; assay type: physicochemical; conditions: aqueous buffer, kinetic from dmso stock, from 10 mM DMSO stock, 25°C
Experimental: 4 µl of a 10 mM DMSO stock solution from of each sample were dissolved in 400 µl of PBS and sonicated for 5 minutes. The samples were centrifuged for 15 minutes at 4000 rpm at 25°C, then 250 µl of each sample were transferred to a 96 well plate. 10 µl of each sample were analyzed by HPLC and the sample concentrations were calculated against a series of caffeine standards ranging from 1 to 100 µM.

Syk [5] = biological target: T2, Syk (Homo sapiens, UniProt P43405); experiment: Direct binding to Syk by fluorescence spectroscopy
Experimental: Direct binding to Syk of a selection of these 85 compounds was investigated using fluorescence spectroscopy.
For each compound, the ChemBridge ID and the cluster to which it belongs are reported. Direct binding to Syk of some compounds was measured using fluorescence spectroscopy (Kd: dissociation constant). Antibody inhibition percentage reflects the capacity of each compound to inhibit the binding of scFv G4G11 to Syk (final concentrations of 10 µM for small molecules and 100 nM for G4G11). The ability of each compound to inhibit the liberation of allergic mediators from mast cells is measured (**: IC50 values of cell degranulation ≥20 µM). Some physicochemical properties computed with FAFDrugs2, as well as the possible ADMET problems detected by our tool are reported. The computations involved: molecular weight (MW), logP, topological polar surface area (tPSA), H-bond acceptors and donors (HBA, HBD). (PDF) Click here for additional data file.

RBL-2H3 mast cells [6] = test system: RBL-2H3 mast cells; parameters: method as in PMID 18539317; conditions: cited from earlier work
Syk [7] = biological target: T2, Syk; parameters: method as in PMID 18539317; conditions: cited from earlier work
anaphylactic shock = test system: anaphylactic shock; parameters: method as in PMID 18539317; conditions: administered orally to mice; cited from earlier work
[8] = Table S1, class symbol, read-out: IC50 Cell Degranulation
[9] = Rattus norvegicus, RBL-2H3, Table S1, class symbol, read-out: IC50 Cell Degranulation
[10] = Rattus norvegicus, Table 1, RBL-2H3, FcεRI stimulation, β-hexosaminidase release, read-out: IC50 Cell Degranulation

| Structure (SMILES) | Antibody Inhibition [1] | IC50 (RBL-2H3 mast cells [2]; [8]) | further results |
| --- | --- | --- | --- |
| O=C(Nc1ccccc1C(=O)N1CCCC1)c1ccc(CN2CCc3ccccc3C2)cc1 [compound 7199725] | 25% | ≥ 20 µM | – |
| N#CC1=C(N)Oc2[nH]nc(-c3ccccc3)c2C1c1cccc(OC(=O)c2ccco2)c1 (stereo not shown) [compound 6669449] | 42% | – | IC50 (RBL-2H3 mast cells [2]; [9]): ≥ 20 µM |
| COC(=O)c1ccccc1-c1ccc(C=C2SC(=S)N(Cc3ccccc3)C2=O)o1 [C-13, methyl 2-{5-[(3-benzyl-4-oxo-2-thioxo-1,3-thiazolidin-5-ylidene)methyl]-2-furyl}benzoate, reference compound] | 81% | – | FcεRI-induced mast cell degranulation in vitro (RBL-2H3 mast cells [6]): inhibits; effects on the enzymatic activity of Syk (Syk [7]): no effects; anaphylactic shock in vivo (anaphylactic shock): inhibits; Kd (Syk [5]; Table 1): 4 µM; IC50 (RBL-2H3 mast cells [2]; [10]): 2 µM |
| COc1ccc(C2C(C(=O)c3cccs3)=C(O)C(=O)N2CCN2CCOCC2)cc1OC (stereo not shown) [compound 6677533] | 50% | – | IC50 (RBL-2H3 mast cells [2]; [9]): ≥ 20 µM |
| CCOc1ccc(NC(=O)CC2C(=O)N(c3ccc(OC)cc3)C(=S)N2CCN2CCOCC2)cc1 (stereo not shown) [compound 7722914] | 19% | – | Kd (Syk [5]; Table S1): 15.6 µM; IC50 (RBL-2H3 mast cells [2]; Rattus norvegicus, RBL-2H3, Table S1, numeric values, read-out: IC50 Cell Degranulation): 15 µM |
| C=CCn1c(SCC(=O)Nc2cccc(OC)c2)nnc1C(C)NC(=O)c1ccccc1 (stereo not shown) [compound 7752193] | 35% | – | solubility at 5 min [4]: 0.3 µM (≈ 0.135 µg/mL); Kd (Syk [5]; Table 1): 8 µM; IC50 (RBL-2H3 mast cells [2]; [10]): 10 µM |
| Cc1ccc(-c2nnc(Nc3cccc(O)c3)c3ccccc23)cc1S(=O)(=O)NC(C)(C)CO [compound 7238569] | 32% | ≥ 20 µM | – |
| C=CCn1c(CNC(=O)c2cccc(C)c2)nnc1SCC(=O)Nc1cccc(C(=O)OC(C)C)c1 [compound 7783660] | 27% | – | solubility at 5 min [4]: 12.9 µM (≈ 6.55 µg/mL); Kd (Syk [5]; Table 1): 4.8 µM; IC50 (RBL-2H3 mast cells [2]; [10]): 10 µM |
| CCOC(=O)c1ccc(NC(=O)CSc2nnc(-c3ccco3)c(-c3ccco3)n2)cc1 [compound 7495334] | 43% | – | solubility at 5 min [4]: 35.2 µM (≈ 15.9 µg/mL); Kd (Syk [5]; Table 1): 1.6 µM; IC50 (RBL-2H3 mast cells [2]; [10]): 10 µM |
| Cc1ccc(-n2c3c(cc(C(=O)NC4CC(C)(C)NC(C)(C)C4)c2=O)C(=O)CC(C)(C)C3)cc1 [compound 6866968] | 57.5% | ≥ 20 µM | – |

Second part, led by results:

| Antibody Inhibition [1] | IC50 (RBL-2H3 mast cells [2]; [8]) | Structure (SMILES) | further results |
| --- | --- | --- | --- |
| 58% | ≥ 20 µM | COc1cc(NS(=O)(=O)c2ccc(NC(C)=O)cc2)c(OC)cc1NC(=O)c1ccccc1 [compound 6853966] | – |
| 40% | – | COc1cc(-c2nnc(SCC(=O)Nc3ccc(Cl)cc3)n2CCc2ccccc2)cc(OC)c1OC [compound 7501888] | toxic effect on mast cells responses (RBL-2H3 mast cells [3]): no major toxic effect; solubility at 5 min [4]: 6 µM (≈ 3.23 µg/mL); Kd (Syk [5]; Table 1): 8.2 µM; IC50 (RBL-2H3 mast cells [2]; [10]): 4 µM |
| 39.5% | – | CCOC(=O)c1ccc(NC(=O)CC2C(=O)N(c3ccc(Cl)cc3)C(=S)N2Cc2cccnc2)cc1 (stereo not shown) [compound 7722851] | toxic effect on mast cells responses (RBL-2H3 mast cells [3]): no major toxic effect; Kd (Syk [5]; Table S1): 21.8 µM; IC50 (RBL-2H3 mast cells [2]; Rattus norvegicus, RBL-2H3, FcεRI-dependent degranulation of mast cells, read-out: IC50 (degranulation)): 4 µM |
| 63% | ≥ 20 µM | COc1ccc(S(=O)(=O)N(CCc2ccccc2)CC(=O)Nc2ccc(C(N)=O)cc2)cc1 [compound 6498669] | Kd (Syk [5]; Table S1): 0.8 µM |
| 50% | ≥ 20 µM | COc1ccc(C2C(=C(O)c3ccc(C)cc3)C(=O)C(=O)N2CCN2CCOCC2)cc1 (stereo not shown) [compound 6670747] | – |
| 50% | ≥ 20 µM | COc1ccc(C2C(=C(O)c3ccc(F)cc3)C(=O)C(=O)N2CCN2CCOCC2)cc1OC (stereo not shown) [compound 6654239] | – |
| 27.5% | ≥ 20 µM | COc1cccc(C2C(=C(O)c3ccccc3)C(=O)C(=O)N2CCCN2CCOCC2)c1OC (stereo not shown) [compound 6891745] | – |
| 50% | ≥ 20 µM | COc1ccc(C2C(=C(O)c3ccc(F)cc3)C(=O)C(=O)N2CCN2CCOCC2)c(OC)c1 (stereo not shown) [compound 6670673] | – |
| 79.5% | ≥ 20 µM | COc1cccc(C2C(=C(O)c3ccc(C)cc3)C(=O)C(=O)N2CCCN2CCOCC2)c1 (stereo not shown) [compound 6882059] | Kd (Syk [5]; Table S1): 9.4 µM |
| 70.5% | ≥ 20 µM | COc1ccc(OC)c(C2C(=C(O)c3ccc(C)cc3)C(=O)C(=O)N2Cc2cccnc2)c1 (stereo not shown) [compound 6652639] | – |
| 20% | – | COC(=O)c1ccc(NC(=O)CN(c2cccc(OC)c2)S(=O)(=O)c2ccccc2)cc1 [compound 7787455] | IC50 (RBL-2H3 mast cells [2]; [9]): ≥ 20 µM |
| 67.5% | – | COc1ccccc1C(=O)Nc1ccc(-c2nnc(SCC(=O)c3ccccc3)n2C)cc1 [compound 6282824] | solubility at 5 min [4]: 4.5 µM (≈ 2.06 µg/mL); Kd (Syk [5]; Table 1): 5.6 µM; IC50 (RBL-2H3 mast cells [2]; [10]): 5 µM |
